In the assay the test system is TMD8 cells. In words: RT-qPCR of IRF4, BCL6, MYC mRNA. Particulars: 24 h, tirabrutinib 1 μM, BMS-345541 10 μM, MK-2206 1 μM, refametinib 0.1 μM. The format is cell-based, human. As to the method: After culturing, total RNA was isolated from cells using the RNeasy Plus Mini Kit (Qiagen), then cDNA was prepared from total RNA using the SuperScript VILO cDNA Synthesis Kit (Invitrogen) following the kit instructions. For quantification of each mRNA expression level, PCR was performed using TaqMan Fast Universal PCR Master Mix (Thermo Fisher Scientific) under the following conditions with the AriaMx Real Time PCR System (Agilent Technologies): 95°C for 3 min, followed by 40 cycles at 95°C for 5 s and 60°C for 20 s with continuous fluorescence measurement. All PCRs were performed in triplicate, and the mRNA expression of GAPDH was used as an internal control. The results (fold changes of the threshold cycle [Ct] relative to the control group) were obtained using the 2^−ΔΔCt method. The TaqMan probes for IRF4 (Assay ID: Hs00180031_m1), BCL6 (Assay ID: Hs00153368_m1), MYC (Assay ID: Hs00153408_m1), and GAPDH (Assay ID: Hs02786624_g1) were purchased from Thermo Fisher Scientific. Statistical tests were performed with the SAS 9.4 (SAS Institute Japan Ltd., Tokyo, Japan) TS1M4-based EXSUS system version 10.1.3 (CAC Corporation, Tokyo, Japan). The t-test or Dunnett test was used to compare mRNA expression in the DMSO- and compound-treated groups. The statistical tests were two-sided with a 5% significance level.
For orientation: In qPCR the cycle at which signal appears reflects the starting amount.

Molecules are shown by their SMILES. “Also recorded” adds a separate entry of the source.

In the case of `Cc1ccc2nc(NCCN)c3ncc(C)n3c2c1` [BMS-345541], the “IRF4 mRNA expression” value is “significant downregulation; also recorded: strongly inhibited” and the “MYC mRNA expression” value is “significant downregulation; also recorded: strong inhibition”.
For `NC1(c2ccc(-c3nc4ccn5c(=O)[nH]nc5c4cc3-c3ccccc3)cc2)CCC1` [MK-2206], the “IRF4 mRNA expression” value is recorded as “did not downregulate” and the “MYC mRNA expression” value was “did not downregulate”.
On to `COc1cc(F)c(F)c(Nc2ccc(I)cc2F)c1NS(=O)(=O)C1(C[C@H](O)CO)CC1` [refametinib], for which the “MYC mRNA expression” value was “tended to downregulate; also recorded: partially downregulated”.
